In ChEMBL document CHEMBL1909046, “DrugMatrix in vitro pharmacology data”:

Experiments:
[1] = molecular target: T1, Alpha-2A adrenergic receptor (Homo sapiens, UniProt P08913); format: cell membranes, Sf9, Membrane; further: in other assays of this panel Not Active means under 50% inhibition at 10 µM
T1 sequence (P08913 whole entry): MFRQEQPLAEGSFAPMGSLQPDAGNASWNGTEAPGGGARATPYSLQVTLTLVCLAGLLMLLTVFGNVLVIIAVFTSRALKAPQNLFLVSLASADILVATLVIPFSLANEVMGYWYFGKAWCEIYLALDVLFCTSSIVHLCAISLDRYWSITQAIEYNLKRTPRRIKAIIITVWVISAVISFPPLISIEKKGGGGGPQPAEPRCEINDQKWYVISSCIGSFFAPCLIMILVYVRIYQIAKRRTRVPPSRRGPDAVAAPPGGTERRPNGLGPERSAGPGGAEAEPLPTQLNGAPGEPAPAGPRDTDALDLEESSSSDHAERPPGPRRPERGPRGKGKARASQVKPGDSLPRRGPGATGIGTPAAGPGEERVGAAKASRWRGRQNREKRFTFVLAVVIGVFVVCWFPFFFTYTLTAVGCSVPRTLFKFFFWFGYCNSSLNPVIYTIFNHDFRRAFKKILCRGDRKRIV

[2] = molecular target: Aldo-keto reductase family 1 member B1 (Rattus norvegicus, UniProt P07943); assay: biochemical; format: tissue-based, Lens of camera-type eye;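 further: inhibition of aldose reductase enzyme activity, measured with DL-glyceraldehyde as the substrate; in other assays of this panel Not Active means under 50% inhibition at 10 µM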
[3] = DRUGMATRIX: Serotonin (5-Hydroxytryptamine) 5-HT3 radioligand binding (ligand: [3H] GR-65630); format: cell membranes, Membrane; conditions: hek293; Not Active = under 50% inhibition at 10 µM
[4] = molecular target: 5-hydroxytryptamine receptor 4 (Cavia porcellus, UniProt O70528); format: cell membranes, Dunkin-Hartley, Striatum, Membrane; further: in other assays of this panel Not Active means under 50% inhibition at 10 µM
[5] = molecular target: D(1A) dopamine receptor (Homo sapiens, UniProt P21728); assay: DRUGMATRIX: Dopamine D1 radioligand binding (ligand: [3H] SCH-23390); format: cell membranes, CHO, Membrane; conditions: cho; Not Active = under 50% inhibition at 10 µM
[6] = molecular target: T2, Adenosine receptor A1 (Homo sapiens, UniProt P30542); format: cell membranes, CHO, Membrane; conditions: cho;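 further: radioligand binding assay at the adenosine A1 receptor, with DPCPX serving as the labelled ligand; in other assays of this panel Not Active means under 50% inhibition at 10 µM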
T2 sequence (P30542 whole entry): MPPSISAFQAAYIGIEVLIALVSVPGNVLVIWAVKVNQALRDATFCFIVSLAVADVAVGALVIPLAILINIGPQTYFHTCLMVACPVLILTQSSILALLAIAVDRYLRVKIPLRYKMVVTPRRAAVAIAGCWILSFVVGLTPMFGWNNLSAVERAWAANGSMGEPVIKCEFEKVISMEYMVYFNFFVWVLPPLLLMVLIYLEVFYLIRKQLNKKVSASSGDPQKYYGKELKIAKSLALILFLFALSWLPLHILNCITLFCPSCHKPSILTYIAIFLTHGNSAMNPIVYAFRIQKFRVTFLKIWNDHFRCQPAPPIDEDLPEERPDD

5-hydroxytryptamine receptor 4, sequence (O70528 whole entry): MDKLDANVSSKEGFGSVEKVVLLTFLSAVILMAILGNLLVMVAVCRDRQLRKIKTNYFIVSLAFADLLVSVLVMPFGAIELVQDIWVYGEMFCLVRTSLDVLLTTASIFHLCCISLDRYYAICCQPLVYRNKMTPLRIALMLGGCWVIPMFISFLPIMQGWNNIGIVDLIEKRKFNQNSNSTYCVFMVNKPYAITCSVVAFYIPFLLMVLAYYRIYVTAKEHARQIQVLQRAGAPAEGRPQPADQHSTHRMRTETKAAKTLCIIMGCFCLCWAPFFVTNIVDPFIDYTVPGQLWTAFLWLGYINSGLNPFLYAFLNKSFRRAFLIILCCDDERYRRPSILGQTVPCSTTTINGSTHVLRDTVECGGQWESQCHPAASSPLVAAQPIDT
D(1A) dopamine receptor, sequence (P21728 whole entry): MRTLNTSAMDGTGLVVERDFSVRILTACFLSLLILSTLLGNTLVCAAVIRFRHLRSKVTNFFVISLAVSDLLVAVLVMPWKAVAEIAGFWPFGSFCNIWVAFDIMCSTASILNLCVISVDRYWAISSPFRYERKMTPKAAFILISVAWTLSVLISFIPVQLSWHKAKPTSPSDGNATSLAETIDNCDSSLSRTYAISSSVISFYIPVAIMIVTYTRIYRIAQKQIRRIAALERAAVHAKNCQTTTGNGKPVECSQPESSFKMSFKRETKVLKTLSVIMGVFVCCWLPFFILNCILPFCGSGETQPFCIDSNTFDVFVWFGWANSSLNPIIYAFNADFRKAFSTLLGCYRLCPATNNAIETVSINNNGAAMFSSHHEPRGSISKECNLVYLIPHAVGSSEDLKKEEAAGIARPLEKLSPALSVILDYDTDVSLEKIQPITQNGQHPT

SMILES | IC50 ([1]; sf9) | IC50 [2] | IC50 [3] | Ki [3] | IC50 [4] | IC50 [5] | IC50 [6] | IC50 ([1]; read-out: IC50) | Ki ([1]; read-out: Ki)
CN(CCOc1ccc(CC2SC(=O)NC2=O)cc1)c1ccccn1 (stereo unspecified) [ROSIGLITAZONE] | Not Active | Not Active | Not Active | Not Active | Not Active | Not Active | Not Active | – | –
C=C(C)[C@H]1Cc2c(ccc3c2O[C@@H]2COc4cc(OC)c(OC)cc4[C@@H]2C3=O)O1 [ROTENONE] | Not Active | Not Active | Not Active | Not Active | Not Active | Not Active | Not Active | – | –
C#CCN(C)[C@H](C)Cc1ccccc1 [SELEGILINE] | – | Not Active | Not Active | Not Active | Not Active | Not Active | Not Active | 1800 nM | 674 nM
CO[C@H]1C[C@@H]2CC[C@@H](C)[C@@](O)(O2)C(=O)C(=O)N2CCCC[C@H]2C(=O)O[C@H]([C@H](C)C[C@@H]2CC[C@@H](O)[C@H](OC)C2)CC(=O)[C@H](C)/C=C(\C)[C@@H](O)[C@@H](OC)C(=O)[C@H](C)C[C@H](C)/C=C/C=C/C=C/1C [SIROLIMUS] | Not Active | Not Active | Not Active | Not Active | Not Active | Not Active | Not Active | – | –
CN[C@@H]1[C@H](O)[C@H](NC)[C@H]2O[C@@]3(O)C(=O)C[C@@H](C)O[C@H]3O[C@@H]2[C@H]1O [SPECTINOMYCIN] | Not Active | Not Active | Not Active | Not Active | Not Active | Not Active | Not Active | – | –
Nc1ccc(S(=O)(=O)Nc2ncccn2)cc1 [SULFADIAZINE] | Not Active | Not Active | Not Active | Not Active | Not Active | Not Active | Not Active | – | –
COc1ncnc(NS(=O)(=O)c2ccc(N)cc2)c1OC [SULFADOXINE] | Not Active | Not Active | Not Active | Not Active | Not Active | Not Active | Not Active | – | –
Nc1ccc(S(=O)(=O)Nc2nccs2)cc1 [SULFATHIAZOLE] | Not Active | Not Active | Not Active | Not Active | Not Active | Not Active | Not Active | – | –
C[C@]12CC[C@H]3[C@@H](CCC4=CC(=O)CC[C@@]43C)[C@@H]1CC[C@@H]2O [TESTOSTERONE] | Not Active | Not Active | Not Active | Not Active | Not Active | Not Active | Not Active | – | –
CC(C)(C)NC[C@H](O)COc1nsnc1N1CCOCC1 [TIMOLOL] | Not Active | Not Active | Not Active | Not Active | Not Active | Not Active | Not Active | – | –
CCS(=O)(=O)CCn1c([N+](=O)[O-])cnc1C [TINIDAZOLE] | Not Active | Not Active | Not Active | Not Active | Not Active | Not Active | Not Active | – | –
C[C@@H]1C[C@H]2[C@@H]3CCC4=CC(=O)C=C[C@]4(C)C3=CC[C@]2(C)[C@H]1C(=O)CN1CCN(c2cc(N3CCCC3)nc(N3CCCC3)n2)CC1 [TIRILAZAD] | Not Active | Not Active | Not Active | Not Active | Not Active | Not Active | Not Active | – | –
NC[C@H]1O[C@H](O[C@H]2[C@H](O)[C@@H](O[C@H]3O[C@H](CO)[C@@H](O)[C@H](N)[C@H]3O)[C@H](N)C[C@@H]2N)[C@H](N)C[C@@H]1O [TOBRAMYCIN] | Not Active | Not Active | Not Active | Not Active | Not Active | Not Active | Not Active | – | –
O=c1n(CCCN2CCN(c3cccc(Cl)c3)CC2)nc2ccccn12 [TRAZODONE] | – | Not Active | – | – | Not Active | – | Not Active | – | –
O=C(O)C(Cl)(Cl)Cl [TRICHLOROACETIC ACID] | Not Active | Not Active | Not Active | Not Active | Not Active | Not Active | Not Active | – | –
COc1ccc(CN2CCNCC2)c(OC)c1OC [TRIMETAZIDINE] | Not Active | Not Active | Not Active | Not Active | Not Active | Not Active | Not Active | – | –
CC(=O)O[C@H]1C[C@@H]2CC[C@@H]3[C@H](CC[C@@]4(C)[C@H]3C[C@H]([N+]3(C)CCCCC3)[C@@H]4OC(C)=O)[C@@]2(C)C[C@@H]1N1CCCCC1.[Br-] [VECURONIUM BROMIDE] | Not Active | Not Active | Not Active | Not Active | Not Active | Not Active | Not Active | – | –
